For ten compounds, AC50, EC50 and IC50 results are on record in ChEMBL document CHEMBL1201862, “PubChem BioAssay data set” (2004).

Calls of active or inactive are those of the source.

The nature of experiment [1]: off-target signal loss in HeLa-CEM21 co-culture – HeLa F-luc CTL cells, cherry-picked, counter-screen for HIV-1 Env fusion inhibitor project, dose response (AID 652040).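 Further: potency for signal decrease marking cytotoxic or nonspecific inhibition.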 In kind it is functional, cell-based. In general terms: The purpose of a counterscreen is to sort out artefacts and off-target activity.
A short description of experiment [2]: CEM21 lymphoblast cell cytotoxicity, dose response, cytotoxicity control for viral fusion inhibitor project, CellTiter-Glo luminescence, cherry-picked (AID 652042).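 Further: potency for signal decrease meaning cytotoxicity.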 In kind it is functional, cell-based. (In ATP-based viability assays light output follows the ATP content of the culture.)
Experiment [3] can be described thus: cells. The class given is functional, cell-based.
Experiment [4] can be described thus: cells. The class given is functional, cell-based. This is another data set of the same source.
In a further experiment the target is Albumin (Bos taurus, UniProt P02769). The experiment in a line: Counterscreen for inhibitors of T-cell receptor (TCR)-CD3 interaction: Fluorescence-based biochemical high throughput dose response assay to identify inhibitors of T-cell receptor (TCR)-CD3 interaction using a TAMRA-labeled BSA probe. The class given is functional.
Sequence of Albumin (P02769 whole entry, the tested form may be a part): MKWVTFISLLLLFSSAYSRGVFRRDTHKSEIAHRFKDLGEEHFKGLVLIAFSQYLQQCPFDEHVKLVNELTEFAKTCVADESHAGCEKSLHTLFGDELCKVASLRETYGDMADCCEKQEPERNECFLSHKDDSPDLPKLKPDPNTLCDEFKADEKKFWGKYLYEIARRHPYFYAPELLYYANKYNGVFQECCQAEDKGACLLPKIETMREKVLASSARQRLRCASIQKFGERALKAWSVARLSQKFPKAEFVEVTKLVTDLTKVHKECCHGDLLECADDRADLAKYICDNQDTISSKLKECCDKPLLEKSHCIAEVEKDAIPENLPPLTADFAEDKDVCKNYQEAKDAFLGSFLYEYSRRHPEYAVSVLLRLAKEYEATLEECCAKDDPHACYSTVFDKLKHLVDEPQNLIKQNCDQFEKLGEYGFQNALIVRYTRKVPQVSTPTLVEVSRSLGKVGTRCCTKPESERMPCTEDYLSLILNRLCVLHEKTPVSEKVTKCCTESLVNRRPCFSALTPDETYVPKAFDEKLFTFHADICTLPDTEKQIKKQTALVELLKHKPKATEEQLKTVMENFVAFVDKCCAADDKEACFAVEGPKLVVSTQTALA
Experiment [5] is described as follows: inhibitors of HIV Env-driven cell fusion, dose response, cherry-pick (AID 652057). The class given is functional, cell-based.
Experiment [6] in a line: inhibitors of clade B AD8 Env fusion, dose response, cell-based, cherry-pick (AID 652062).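 Further: luciferase signal from cell-cell fusion driven by HIV-1 clade B AD8 Env; potency is for inhibitors of fusion seen as a drop in luminescence.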 In kind it is functional.
Experiment [7] in a line: ZM109 Env clade C HIV-1 fusion inhibitors, dose response, HeLa effector, CEM target cells, luciferase, cherry-pick (AID 652058). In kind it is functional, cell-based.
In experiment [8] the target is T1, Histone-lysine N-methyltransferase NSD2 (Homo sapiens, UniProt O96028).
T1 sequence (O96028 whole entry): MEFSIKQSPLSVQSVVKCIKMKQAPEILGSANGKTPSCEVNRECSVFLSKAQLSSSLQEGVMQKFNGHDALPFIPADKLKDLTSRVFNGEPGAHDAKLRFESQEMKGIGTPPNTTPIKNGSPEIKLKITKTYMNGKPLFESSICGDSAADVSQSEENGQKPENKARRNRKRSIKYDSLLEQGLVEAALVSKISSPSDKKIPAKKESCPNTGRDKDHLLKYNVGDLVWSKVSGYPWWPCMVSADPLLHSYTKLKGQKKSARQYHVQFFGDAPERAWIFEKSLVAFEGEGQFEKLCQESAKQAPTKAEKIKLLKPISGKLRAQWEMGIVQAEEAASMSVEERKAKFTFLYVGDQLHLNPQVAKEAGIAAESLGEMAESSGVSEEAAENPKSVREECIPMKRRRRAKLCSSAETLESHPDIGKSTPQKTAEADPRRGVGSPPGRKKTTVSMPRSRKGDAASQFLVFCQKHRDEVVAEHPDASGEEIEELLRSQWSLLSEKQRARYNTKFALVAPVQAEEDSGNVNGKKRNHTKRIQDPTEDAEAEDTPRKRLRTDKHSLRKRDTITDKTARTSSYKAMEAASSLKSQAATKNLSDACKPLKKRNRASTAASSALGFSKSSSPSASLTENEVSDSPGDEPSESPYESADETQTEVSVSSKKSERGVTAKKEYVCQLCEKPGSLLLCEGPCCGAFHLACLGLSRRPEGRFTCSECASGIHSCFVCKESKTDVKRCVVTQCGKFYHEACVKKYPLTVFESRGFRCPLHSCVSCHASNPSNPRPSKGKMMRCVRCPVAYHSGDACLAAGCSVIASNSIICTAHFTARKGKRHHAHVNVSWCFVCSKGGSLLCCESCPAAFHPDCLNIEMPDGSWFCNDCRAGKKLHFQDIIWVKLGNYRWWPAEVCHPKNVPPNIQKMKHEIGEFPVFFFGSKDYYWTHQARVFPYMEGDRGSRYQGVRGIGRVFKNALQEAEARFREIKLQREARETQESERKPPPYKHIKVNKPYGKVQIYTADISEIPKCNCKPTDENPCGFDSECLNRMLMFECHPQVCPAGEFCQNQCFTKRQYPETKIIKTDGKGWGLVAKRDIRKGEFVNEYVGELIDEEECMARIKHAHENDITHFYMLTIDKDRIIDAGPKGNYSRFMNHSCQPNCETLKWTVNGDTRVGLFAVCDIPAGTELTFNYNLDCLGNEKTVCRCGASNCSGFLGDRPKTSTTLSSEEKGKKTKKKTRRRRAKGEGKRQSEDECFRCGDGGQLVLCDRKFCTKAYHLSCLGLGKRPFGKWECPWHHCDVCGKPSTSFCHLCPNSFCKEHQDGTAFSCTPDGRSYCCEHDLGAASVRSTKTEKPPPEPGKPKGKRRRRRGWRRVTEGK
The class given is biochemical.

The nature of experiment [9]: Luminescence Cell-Based Dose Response HTS to Identify Inhibitors of 5'UTR Stem-Loop Driven Prion Protein mRNA Translation in H4 Neuroglioblastoma Cells. [Related pubchem assays: 1827 (Project Summary), 1813 (Primary HTS)]. In kind it is functional.
In the next experiment the test system is H9c2. In words: cells. The settings on record: Rattus norvegicus, H9c2, Myocardium. In kind it is functional, cell-based.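 Further: confirmatory concentration-response retest of ultra-high-throughput screening hits for modulation of myocardial damage; cell death induced by hydrogen peroxide oxidative stress; compound pretreatment for 60 min then peroxide exposure for 2 h; potency is for protecting the cells against peroxide damage rather than for killing them.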
Experiment [10] is described as follows: inhibitors of firefly luciferase expression or activity, dose response, H4 neuroglioma cells, luminescence (AID 1990). In kind it is functional, cell-based.
The test system of another experiment is INS1. The experiment in a line: beta cell apoptosis inhibitors, cytokine rescue, dose response, luminescence, retest (AID 449756).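 Further: cell death triggered by IL-1 beta plus TNF-alpha plus IFN-gamma mixture; protective hits raise ATP signal compared with cytokine alone wells.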 The class given is functional, cell-based. The settings on record: Rattus norvegicus.
A short description of experiment [11]: inhibitors of SNCA 5'UTR-driven reporter translation, confirmation, H4 neuroglioma cells, luminescence (AID 1988). In kind it is functional, cell-based.
Experiment [12] concerns the target T2, Short transient receptor potential channel 4 (Mus musculus, UniProt Q9QUQ5).
T2 sequence (Q9QUQ5 whole entry): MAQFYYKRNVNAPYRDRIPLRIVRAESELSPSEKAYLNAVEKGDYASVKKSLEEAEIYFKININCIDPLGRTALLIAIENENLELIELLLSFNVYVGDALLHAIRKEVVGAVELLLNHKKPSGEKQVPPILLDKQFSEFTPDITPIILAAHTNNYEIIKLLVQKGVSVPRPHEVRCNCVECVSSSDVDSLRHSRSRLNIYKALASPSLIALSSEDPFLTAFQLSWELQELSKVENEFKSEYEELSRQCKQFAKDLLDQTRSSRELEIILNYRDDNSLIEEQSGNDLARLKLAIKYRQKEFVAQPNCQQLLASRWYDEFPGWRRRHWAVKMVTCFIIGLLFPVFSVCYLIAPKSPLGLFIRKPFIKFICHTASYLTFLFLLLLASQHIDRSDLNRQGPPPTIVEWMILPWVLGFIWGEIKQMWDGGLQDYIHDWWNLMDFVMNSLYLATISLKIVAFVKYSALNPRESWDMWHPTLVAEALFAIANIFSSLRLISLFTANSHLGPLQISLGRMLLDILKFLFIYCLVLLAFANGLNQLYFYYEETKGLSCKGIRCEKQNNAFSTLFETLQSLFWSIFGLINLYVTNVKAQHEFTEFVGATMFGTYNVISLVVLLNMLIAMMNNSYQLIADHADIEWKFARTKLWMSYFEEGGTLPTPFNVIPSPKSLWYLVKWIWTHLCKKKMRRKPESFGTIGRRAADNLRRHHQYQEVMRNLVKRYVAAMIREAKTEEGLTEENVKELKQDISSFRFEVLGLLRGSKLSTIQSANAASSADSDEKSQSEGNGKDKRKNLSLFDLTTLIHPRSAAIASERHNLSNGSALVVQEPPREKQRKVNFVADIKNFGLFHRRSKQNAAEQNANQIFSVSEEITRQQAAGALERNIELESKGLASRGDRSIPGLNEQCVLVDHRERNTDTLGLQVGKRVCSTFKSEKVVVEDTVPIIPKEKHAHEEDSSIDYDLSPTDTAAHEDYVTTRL
In words: mouse TRPC4 channel activators, dose response, cell-based, HEK293 TRPC4/mu-opioid, Fluo-4 calcium (AID 434937). In kind it is functional.

For experiment [13], the target named is T2, Short transient receptor potential channel 4. The experiment in a line: mouse TRPC4 channel inhibitors, dose response, cell-based, HEK293 TRPC4/mu-opioid, Fluo-4 calcium (AID 434942).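 Further: potency of inhibitors blocking the TRPC4 calcium response.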 The class given is functional.
The target of experiment [14] is T3, Long-chain-fatty-acid--AMP ligase FadD28 (Mycobacterium tuberculosis, UniProt P9WQ59).
T3 sequence (P9WQ59 whole entry): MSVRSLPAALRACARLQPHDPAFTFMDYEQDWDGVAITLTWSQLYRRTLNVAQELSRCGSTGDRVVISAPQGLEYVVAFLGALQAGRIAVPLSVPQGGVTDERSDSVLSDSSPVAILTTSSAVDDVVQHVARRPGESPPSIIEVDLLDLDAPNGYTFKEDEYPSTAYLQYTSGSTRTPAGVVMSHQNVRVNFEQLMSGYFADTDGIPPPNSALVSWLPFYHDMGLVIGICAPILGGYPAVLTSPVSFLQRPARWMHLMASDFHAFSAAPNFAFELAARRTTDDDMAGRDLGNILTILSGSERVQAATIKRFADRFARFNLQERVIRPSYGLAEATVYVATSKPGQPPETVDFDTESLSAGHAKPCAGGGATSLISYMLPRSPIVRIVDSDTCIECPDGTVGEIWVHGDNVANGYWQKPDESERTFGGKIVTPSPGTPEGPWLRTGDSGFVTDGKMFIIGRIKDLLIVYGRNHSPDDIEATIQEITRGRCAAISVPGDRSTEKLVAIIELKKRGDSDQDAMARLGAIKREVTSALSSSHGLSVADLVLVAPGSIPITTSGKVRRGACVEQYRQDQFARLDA
The experiment in a line: Fluorescence polarization aasay to screen for inhibitors that compete for the binding of FadD28 to a bisubstrate Measured in Biochemical System Using Plate Reader - 2147-01_Inhibitor_Dose_CherryPick_Activity. The class given is functional, Mycobacterium tuberculosis H37Rv. (In fluorescence polarisation assays a small probe gives low polarisation when free and higher when bound to something large.)

A word on the AC50: it is the concentration at which the activity in the assay is half-maximal. In general, EC50 refers to the concentration giving half of the maximal effect. As usually defined, the IC50 is the concentration at which inhibition is half-maximal.

As to `COc1ccc(-c2nn(C)c(=O)c3ccccc23)cc1NC(=O)COc1ccccc1`, the AC50 in experiment [1] is 46.2 µM (active); in experiment [2] it was 42.7 µM (active).

As to `O=C(CNC(=O)c1ccccc1Cl)N/N=C/C=C/c1ccccc1`, the EC50 in the experiment “cells [3]” is > 29.9 µM (inactive). The IC50 in “cells [4]” is > 29.9 µM (inactive).

With `Cc1ccc(/C=C2\SC(=S)N(CCC(=O)NNC(=O)c3ccccc3O)C2=O)cc1`, the IC50 on Albumin was > 94.1 µM (inactive).

On to `O=C(CCN1C(=O)/C(=C\c2ccccc2)SC1=S)NNC(=O)c1ccccc1O`, for which, on Albumin, the IC50 was > 94.1 µM (inactive).

`Cc1cc(Cl)ccc1OCC(=O)N1CCCN(C(=O)COc2ccc(Cl)cc2C)CC1`: the AC50 in experiment [5] is 1.98 µM (active); in experiment [1] it was 2.71 µM (active); in [6], 2.45 µM (active); in experiment [2] it was 67.3 µM (active); in experiment [7], 2.8 µM (active).

For the compound `CCOC(=O)C(NCCc1ccccc1)(NC(C)=O)C(F)(F)F` (stereo not drawn), the EC50 in the experiment “cells [3]” is > 29.9 µM (inactive). The IC50 in “cells [4]” was > 29.9 µM (inactive).

`CC1CCCC(C)N1/N=C/c1ccc(O)c(O)c1` (stereo not drawn): the IC50 on Albumin was > 94.1 µM (inactive). Further, the AC50 in [8] was 9.77 µM (active).

On to `COc1ccc2nc(Nc3nc(O)cc(CSc4nc5ccccc5[nH]4)n3)nc(C)c2c1`, for which the half-maximal activity concentration (AC50) in [5] is 2.16 µM (active); in experiment [1], 3.06 µM (active); in experiment [6], 4 µM (active); in experiment [2], 5.77 µM (active); with INS1, 20.5 µM (active); in [7] it was 3.57 µM (active). For the same compound, the 50% effective concentration (EC50) was 10.2 µM (active) in experiment [9], 5.63 µM (active) in [10] and 10.2 µM (active) in experiment [11]. In addition, the IC50 in the experiment on H9c2 was > 79 µM (inactive).

With `CCOc1cc(CNCCc2c[nH]c3ccccc23)cc(Cl)c1OC`, the AC50 was 1.77 µM (active) in experiment [5]; 2.85 µM (active) in [1]; 5.22 µM (active) in [6]; 21.5 µM (active) in experiment [2]; 0.843 µM (active) in experiment [7]. For the same compound, the EC50 in [12] is 3.35 µM (active).

With `CC1Oc2ccccc2C=C1/C=N/Nc1ccc(C(=O)O)cc1` (stereo not drawn), in [13], the EC50 is 2.99 µM (active). Further, the concentration at half-maximal activity (AC50) in experiment [14] was 34.2 µM (active).
